Consider 13 molecules from PubChem BioAssay (NCI).

Structures are written as SMILES. Where “and” joins values, the source holds several entries; their conditions need not be identical. Identical values can stand only once.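 Dose response: 5 concentrations. Exposure: 48 h. Format: 96-well plates. Endpoint: linear interpolation; highest concentration if not reached. Abbreviation: GI50, concentration required for 50% inhibition of growth. TGI: concentration producing complete growth inhibition.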

Some test systems named below: IGROV1 ovarian; NCI-H226 lung; NCI-H23 lung; NCI-H460 lung; NCI-H522 lung; SW-620 colon; UACC-62 melanoma; T-47D breast; HOP-92 NSCLC; BT-549 breast.
What all share (assay): NCI anticancer screen, dose series, 48 h

Consider `COC(=O)c1s/c(=N\C(=S)N(C)C)n(-c2ccc(Cl)cc2)c1C(=O)OC`, for which the TGI with IGROV1 ovarian was > 10 µM; in the test with NCI-H226 lung, > 100 µM; in the test with NCI-H23 lung, > 100 µM; in the test on NCI-H460 lung it was > 100 µM; with NCI-H522 lung, > 100 µM; in the test with SW-620 colon it was > 100 µM. In addition, the TGI in the test with UACC-62 melanoma was > 10 µM.

As for `Clc1nc(Cl)nc(Nc2cccc3ccccc23)n1`, the GI50 is > 100 µM with IGROV1 ovarian; > 100 µM with NCI-H226 lung; > 100 µM in the test with NCI-H23 lung; > 100000 nM in the test with NCI-H460 lung; 94700 nM in the test on SW-620 colon; 98.5 µM in the test on T-47D breast. Moreover, the GI50 in the test with UACC-62 melanoma was 82.5 µM. Moreover, the TGI with IGROV1 ovarian, in the test with NCI-H226 lung, in the test on NCI-H23 lung, with NCI-H460 lung, with SW-620 colon and with T-47D breast was > 100 µM in each case. Besides, in the test with UACC-62 melanoma, the TGI was > 100 µM.

In the case of `Cc1ccc(S(=O)OCc2c(C)c(C)c(COS(=O)c3ccc(C)cc3)c(C)c2C)cc1` (stereo not given), the TGI in the test with HOP-92 NSCLC, in the test with IGROV1 ovarian, in the test with NCI-H226 lung, with NCI-H23 lung, in the test with NCI-H460 lung and with NCI-H522 lung was > 100 µM in each case. The TGI with SW-620 colon and in the test with UACC-62 melanoma was > 100 µM throughout.

On to `CCOC(=O)c1ccc(N=Nc2cc(C(=O)OCC)ccc2O)cc1`, for which the TGI with HOP-92 NSCLC, with IGROV1 ovarian, in the test on NCI-H23 lung, in the test on NCI-H460 lung, with NCI-H522 lung and in the test with SW-620 colon was > 100 µM each time. Besides, in the test on UACC-62 melanoma, the TGI was > 100 µM.

Consider `COc1ccc(-c2cc(/C=C/C(=O)c3ccc(OC)c(OC)c3)[nH]n2)cc1`, for which the GI50 in the test with BT-549 breast was 1.68 µM; with IGROV1 ovarian, 1.57 µM; in the test with NCI-H23 lung, 2.47 µM; with NCI-H460 lung, 1640 nM; with NCI-H522 lung it was 410 nM; in the test on SW-620 colon it was 1350 nM. Besides, the GI50 in the test on T-47D breast was 1.6 µM; in the test on UACC-62 melanoma, 1.65 µM. In addition, the TGI in the test on BT-549 breast was found to be 3.53 µM; with IGROV1 ovarian, 3.65 µM; with NCI-H23 lung it was 6.33 µM; in the test with NCI-H460 lung, 4.34 µM; in the test on NCI-H522 lung, 1.39 µM; with SW-620 colon, 3.59 µM. For the same molecule, the TGI in the test with T-47D breast is 5.15 µM; in the test with UACC-62 melanoma, 3.35 µM.

Take `CSc1ccccc1C#C/C=C\C#Cc1ccccc1N`: the GI50 in the test with BT-549 breast was 3.27 µM; in the test with NCI-H226 lung, 13.4 µM; in the test with NCI-H23 lung it was 13.1 µM; in the test on NCI-H460 lung, 4690 nM; in the test on NCI-H522 lung, 527 nM; in the test with SW-620 colon, 3720 nM. Further, the GI50 in the test with T-47D breast was 17.6 µM; with UACC-62 melanoma, 7.83 µM. Further, the TGI in the test on BT-549 breast is 9.17 µM; in the test on NCI-H226 lung, 52 µM; with NCI-H23 lung, 37.3 µM; with NCI-H460 lung it was 26 µM; with NCI-H522 lung, 32.4 µM; in the test with SW-620 colon, 14.8 µM. The values for the TGI with T-47D breast and in the test on UACC-62 melanoma were 38.6 µM and 34.9 µM, respectively.

Consider `CC(=O)N1CCC(=O)/C(=C/c2ccccc2)C1`, for which the TGI in the test on HOP-92 NSCLC is > 100 µM; in the test with IGROV1 ovarian, 46.4 µM; in the test on NCI-H226 lung it was > 100 µM; with NCI-H23 lung it was > 100 µM; with NCI-H460 lung, > 100 µM; with SW-620 colon it was 34.8 µM. The molecule also showed a TGI in the test on UACC-62 melanoma of 82.7 µM.

As for `C[Si](C)(C)/C(I)=C/CO`, the TGI in the test on HOP-92 NSCLC was 54.5 µM; in the test on IGROV1 ovarian it was > 100 µM; with NCI-H226 lung, 39.3 µM; in the test with NCI-H23 lung, 39.5 µM; in the test on NCI-H460 lung it was 46.3 µM; in the test with NCI-H522 lung, 34.5 µM. The TGI in the test on SW-620 colon came to 47.8 µM; with UACC-62 melanoma it was 52.9 µM.

Consider `Cn1cc(-c2csc(-c3c[nH]c4ccc(Br)cc34)n2)c2cnccc21`, for which the GI50 in the test with BT-549 breast was 26.3 µM; with HOP-92 NSCLC it was 2980 nM; in the test on NCI-H226 lung it was 2.34 µM; with NCI-H23 lung it was 2.73 µM; with NCI-H460 lung it was 1920 nM; in the test with SW-620 colon it was 1810 nM. For the same molecule, the TGI in the test with BT-549 breast is > 100 µM; with HOP-92 NSCLC it was 8.37 µM; in the test with NCI-H226 lung it was 6 µM; in the test with NCI-H23 lung, 8.79 µM; in the test with NCI-H460 lung it was 3.74 µM; in the test on SW-620 colon, 3.46 µM.

Turning to `C=CCN1CCC23c4c5ccc(O)c4OC2C(=NN=C2CCC4(O)C6Cc7ccc(O)c8c7C4(CCN6CC=C)C2O8)CCC3(O)C1C5` (stereo not given), the TGI in the test on HOP-92 NSCLC was 39.9 µM; in the test with IGROV1 ovarian it was > 100 µM; in the test with NCI-H226 lung, > 100 µM; in the test with NCI-H23 lung it was > 100 µM; in the test on NCI-H460 lung, 43.7 µM; in the test with NCI-H522 lung, 72.1 µM. Further, the TGI turned out to be 48.9 µM in the test with SW-620 colon and 44.4 µM in the test with UACC-62 melanoma.

For the molecule `Cc1nc2cc(Nc3nc(Nc4ccc(F)cc4)nc(-c4cccs4)n3)ccc2n1Cc1ccccc1`, the GI50 is 15.8 µM in the test on BT-549 breast; 3.62 µM in the test on IGROV1 ovarian; 8.23 µM in the test with NCI-H226 lung; 5.87 µM with NCI-H23 lung; 3780 nM with NCI-H460 lung; 2660 nM with NCI-H522 lung. Moreover, the GI50 in the test on SW-620 colon is 4020 nM; in the test on T-47D breast, 2.6 µM. Moreover, the TGI is 40.7 µM in the test on BT-549 breast; 12.9 µM with IGROV1 ovarian; 36.5 µM with NCI-H226 lung; 32.7 µM in the test with NCI-H23 lung; 20.4 µM in the test on NCI-H460 lung; 9.16 µM with NCI-H522 lung. In addition, the TGI turned out to be 38.8 µM with SW-620 colon and 9.33 µM with T-47D breast.

Consider `Nc1ccn(C2OC(CO)C(O)C2O)c(=O)n1` (stereo not given), for which the GI50 in the test on BT-549 breast is 7.08 µM; with IGROV1 ovarian, 37.9 µM; with NCI-H226 lung, 0.637 µM; in the test on NCI-H460 lung, 114 nM and 231 nM and 120 nM; in the test with SW-620 colon it was 847 nM; in the test on T-47D breast, 4.2 µM. The GI50 with UACC-62 melanoma was 1.93 µM. Further, the TGI is > 500 µM in the test with BT-549 breast; > 500 µM in the test on IGROV1 ovarian; > 500 µM in the test with NCI-H226 lung; > 100 µM and 418 µM in the test on NCI-H460 lung; > 500 µM in the test on NCI-H522 lung; > 100 µM and 462 µM and > 500 µM in the test with SW-620 colon. In the test on T-47D breast, the TGI is > 500 µM.

For `COC(=O)C1=C(C(=O)OC)C2=S(SC3=C2CCCC3)S1` (stereo not given), the TGI with HOP-92 NSCLC was 40.3 µM; in the test on IGROV1 ovarian, > 100 µM; in the test with NCI-H23 lung, > 100 µM; in the test with NCI-H460 lung, > 100 µM; in the test on NCI-H522 lung, 11.3 µM; in the test on SW-620 colon, 13 µM. The TGI in the test on UACC-62 melanoma was > 100 µM.
